Reference: the SangsterLogP compilation

Row | Structure (SMILES) | logP
1 | FC(F)(F)F | 1.36
2 | FCC(F)(F)F | 1.06
3 | FC(Cl)(Cl)Cl | 2.26
4 | FC(Cl)C(F)(F)F (stereo unspecified) | 1.75
5 | FCC(F)(F)Cl | 1.45
6 | FC(F)=CCl | 1.52
7 | FC(F)=C(F)C(F)(F)F | 1.98
8 | CC(F)(Cl)Cl | 1.95
9 | FCC(F)Cl (stereo unspecified) | 1.62
10 | FC(C(F)(F)F)C(F)(F)F | 2.22
11 | FC(F)C(F)(F)F | 1.45
